The values below come from patent publication US20120165331A1, “Di/tri-aza-spiro-C9-C11alkanes” (priority 2010, published 2012).

Each structure is given as a SMILES string.

Experiment [1] deals with T1, human orexin 2 receptor (Homo sapiens, UniProt O43614).
T1 construct: expressed in transfected cells
T1 sequence (O43614 1-444): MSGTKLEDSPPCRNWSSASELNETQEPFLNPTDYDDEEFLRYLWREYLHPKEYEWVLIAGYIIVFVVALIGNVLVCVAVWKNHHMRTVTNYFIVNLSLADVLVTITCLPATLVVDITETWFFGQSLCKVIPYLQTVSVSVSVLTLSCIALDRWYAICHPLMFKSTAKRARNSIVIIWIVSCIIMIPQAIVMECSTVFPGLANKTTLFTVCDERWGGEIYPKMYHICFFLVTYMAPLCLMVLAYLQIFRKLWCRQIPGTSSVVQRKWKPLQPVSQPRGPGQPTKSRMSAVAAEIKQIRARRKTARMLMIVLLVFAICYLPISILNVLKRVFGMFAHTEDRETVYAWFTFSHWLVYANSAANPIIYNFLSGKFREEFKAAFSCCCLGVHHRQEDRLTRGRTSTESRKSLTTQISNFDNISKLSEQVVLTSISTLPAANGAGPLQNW
The experiment is described as follows: Radioligand binding assay ([3H]-SB649868 competition), human orexin 2 receptor. The conditions noted are these: radioligand [3H]-SB649868; read-out: Binding hOx2R Kd. As to the method:
(§1) Radioligand Binding Assay
(§2) For crude cell membrane preparations, cells (CHO, Chinese hamster ovary or HEK, human embryonic kidney) expressing human orexin 1 or human orexin 2 receptors, were washed with HEPES (10 mM, pH 7.5), scraped off the culture plates with the same buffer, and centrifuged at 4° C. for 5 min at 2500×g. The cell pellet was either stored at −80° C. or used directly. Before the experiments, cell membranes were re-suspended in binding assay buffer (10 mM HEPES, 0.5% (w/v) bovine serum albumin, pH 7.5) by homogenisation with a Polytron homogeniser at 50 Hz for 20 s. Cell membranes were also used as made available by commercial providers.
(§3) Bound radioactivity was measured, and data were analysed with the program XLFIT or Graphpad Prism. Protein concentration was determined according to the Bradford/BioRad Protein Assay Kit.
(§4) In competition experiments, cell homogenates (150 μl) were incubated in assay buffer (10 mM HEPES, pH 7.5, 0.5% (w/v) bovine serum albumin, 5 mM MgCl2, 1 mMCaCl2, and tween 0.05%) for 1 h at room temperature with about 1 nM of the radioligand [^3H]-SB649868, 66 Ci/mmole, 50 μl), and with various concentrations of compounds of the invention (50 μl) in triplicates; non-specific binding was determined in the presence of almorexant (10 μM). Reactions were terminated by vacuum filtration, 3 washes of ice cold wash buffer (Tris-HCl pH 7.4/10 mM, with NaCl 154 mM). Competition data is expressed in Table 1 as Kd [μM].

Experiment [2] addresses T2, human orexin 1 receptor (Homo sapiens, UniProt O43613).
T2 construct: expressed in transfected cells
T2 sequence (O43613 1-425): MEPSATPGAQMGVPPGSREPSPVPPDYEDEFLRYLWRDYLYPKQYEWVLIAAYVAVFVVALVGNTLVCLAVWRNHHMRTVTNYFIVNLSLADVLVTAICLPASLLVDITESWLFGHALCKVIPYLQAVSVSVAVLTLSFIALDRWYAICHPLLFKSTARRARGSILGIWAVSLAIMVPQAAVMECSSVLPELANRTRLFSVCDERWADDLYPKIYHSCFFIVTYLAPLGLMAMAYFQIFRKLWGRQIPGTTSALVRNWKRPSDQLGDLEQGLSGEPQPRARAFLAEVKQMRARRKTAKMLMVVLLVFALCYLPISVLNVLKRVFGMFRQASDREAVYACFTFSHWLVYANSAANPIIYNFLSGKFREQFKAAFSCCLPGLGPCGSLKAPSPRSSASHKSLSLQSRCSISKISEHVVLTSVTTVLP
As to the kind of experiment: Radioligand binding assay ([3H]-SB649868 competition), human orexin 1 receptor. The following applies: radioligand [3H]-SB649868; read-out: Binding hOx1R Kd. As to the method: as §1, §2, §3, §4

The target in experiment [3] is T1, human orexin 2 receptor. As to the kind of experiment: Calcium accumulation in cells (FLIPR), antagonism of orexin A, human orexin 2 receptor. In kind it is cell-based. The following applies: calcium accumulation, antagonism of orexin A, Cheng-Prusoff corrected; read-out: FLIPR hOx2R Ki.
The target in experiment [4] is T2, human orexin 1 receptor. As to the kind of experiment: Calcium accumulation in cells (FLIPR), antagonism of orexin A, human orexin 1 receptor. In kind it is cell-based. The conditions noted are these: for Ki: calcium accumulation, antagonism of orexin A, Cheng-Prusoff corrected, read-out: FLIPR hOx1R Ki; for inhibition at 10 µM: measured at a concentration of 10 μM of compound, read-out: FLIPR hOx1R % inhibition.

By Kd is commonly meant the concentration at which binding is half-saturated. One may read the Ki as the equilibrium dissociation constant of an inhibitor or competing ligand from its target. Regarding `COc1cccc(-c2ocnc2CN2CCNC3(CCN(c4nccc(C)n4)CC3)C2=O)c1` [Example 1.10, 4-((5-(3-Methoxyphenyl)oxazol-4-yl)methyl)-9-(4-methyl-pyrimidin-2-yl)-1,4,9-triazaspiro[5.5] undecan-5-one], the figures for the Kd in experiment [1] and in experiment [2] were 164 nM and 3970 nM, respectively. In addition, the inhibitory constant (Ki) is 84 nM in experiment [3] and 2610 nM in experiment [4].

`COc1cccc(-c2ocnc2CN2CCNC3(CCN(c4nc(C)cc(C#N)n4)CC3)C2=O)c1` [Example 1.11, 2-(4-((5-(3-Methoxyphenyl)oxazol-4-yl)methyl)-5-oxo-1,4,9-triazaspiro[5.5]undecan-9-yl)-6-methylpyrimidine-4-carbonitrile]: the results for the Kd in experiment [1] and in experiment [2] were 37 nM and 2220 nM, respectively. Also, the Ki in experiment [3] was 10 nM; in experiment [4], 2660 nM.

As for `COc1cccc(-c2ocnc2CN2CCNC3(CCN(c4nccc(OC)n4)CC3)C2=O)c1` [Example 1.12, 4-((5-(3-Methoxyphenyl)oxazol-4-yl)methyl)-9-(4-methoxy-pyrimidin-2-yl)-1,4,9-triazaspiro[5.5] undecan-5-one], the results for the Kd in experiment [1] and in experiment [2] were 230 nM and 686 nM, respectively. The Ki was found to be 65 nM in experiment [3] and 621 nM in experiment [4].

In the case of `COc1cccc(-c2ocnc2CN2CCNC3(CCN(c4nc(C)cc(OC)n4)CC3)C2=O)c1` [Example 1.13, 9-(4-Methoxy-6-methylpyrimidin-2-yl)-4-((5-(3-methoxyphenyl)oxazol-4-yl)methyl)-1,4,9-triazaspiro[5.5] undecan-5-one], the Kd is 200 nM in experiment [1] and 82 nM in experiment [2]. Also, the Ki was determined as 3 nM in experiment [3] and 37 nM in experiment [4].

As for `COc1cccc(-c2oc(C)nc2CN2CCNC3(CCN(c4nc(C)cc(C)n4)CC3)C2=O)c1` [Example 1.14, 9-(4,6-Dimethylpyrimidin-2-yl)-4-((5-(3-methoxyphenyl)-2-methyloxazol-4-yl)methyl)-1,4,9-triazaspiro[5.5] undecan-5-one], the Kd in experiment [1] was 22 nM; in experiment [2], 445 nM. Also, the Ki in experiment [3] is 2 nM; in experiment [4], 298 nM.

For `COc1cccc(-c2oc(C)nc2CN2CCNC3(CCN(c4nccc(OC)n4)CC3)C2=O)c1` [Example 1.17, 4-((5-(3-Methoxyphenyl)-2-methyloxazol-4-yl)methyl)-9-(4-methoxypyrimidin-2-yl)-1,4,9-triazaspiro[5.5] undecan-5-one], the figures for the Kd in experiment [1] and in experiment [2] were 251 nM and 2350 nM, respectively. Also, the Ki came out at 92 nM in experiment [3] and 2090 nM in experiment [4].

As to `COc1cccc(-c2oc(C)nc2CN2CCNC3(CCN(c4nc(C)cc(OC)n4)CC3)C2=O)c1` [Example 1.18, 9-(4-Methoxy-6-methylpyrimidin-2-yl)-4-((5-(3-methoxyphenyl)-2-methyloxazol-4-yl)methyl)-1,4,9-triazaspiro[5.5] undecan-5-one], the values for the Kd in experiment [1] and in experiment [2] were 23 nM and 219 nM, respectively. Further, the inhibition constant Ki was found to be 3 nM in experiment [3] and 119 nM in experiment [4].

Regarding `COc1cccc(-c2sc(C)nc2CN2CCNC3(CCN(c4nc(C)cc(C)n4)CC3)C2=O)c1` [Example 1.24, 9-(4,6-Dimethyl-pyrimidin-2-yl)-4-((5-(3-methoxyphenyl)-2-methylthiazol-4-yl)methyl)-1,4,9-triazaspiro[5.5] undecan-5-one], the Kd in experiment [1] amounted to 35 nM; in experiment [2], 924 nM. Also, the Ki in experiment [3] is 10 nM; in experiment [4], 766 nM.

`COc1cccc(-c2sc(C)nc2CN2CCNC3(CCN(c4nc(C)cc(OC)n4)CC3)C2=O)c1` [Example 1.26, 9-(4-Methoxy-6-methylpyrimidin-2-yl)-4-((5-(3-methoxyphenyl)-2-methylthiazol-4-yl)methyl)-1,4,9-triazaspiro[5.5] undecan-5-one]: the Kd in experiment [1] turned out to be 49 nM; in experiment [2], 352 nM. For the same compound, the values for the Ki in experiment [3] and in experiment [4] were 8 nM and 391 nM, respectively.

The term inhibition denotes how much of the control response was suppressed. `COCc1cccc(-c2ocnc2CN2CCNC3(CCN(c4nc(C)cc(C)n4)CC3)C2=O)c1` [Example 1.27, 9-(4,6-Dimethyl-pyrimidin-2-yl)-4-((5-(3-(methoxymethyl)phenyl)oxazol-4-yl)methyl)-1,4,9-triazaspiro[5.5] undecan-5-one]: the Kd was determined as 140 nM in experiment [1] and 5140 nM in experiment [2]. Further, the inhibitory constant (Ki) in experiment [3] was 94 nM. The inhibition at 10 µM in experiment [4] is 34%.

As to `COCc1cccc(-c2ocnc2CN2CCNC3(CCN(c4nc(C)cc(OC)n4)CC3)C2=O)c1` [Example 1.29, 9-(4-Methoxy-6-methylpyrimidin-2-yl)-4-((5-(3-(methoxymethyl)phenyl)oxazol-4-yl)methyl)-1,4,9-triazaspiro[5.5] undecan-5-one], the Kd in experiment [1] was 100 nM; in experiment [2] it was 1320 nM. Further, the inhibitory constant (Ki) in experiment [3] was 75 nM; in experiment [4], 1430 nM.

For the compound `COCc1cccc(-c2oc(C)nc2CN2CCNC3(CCN(c4nc(C)cc(C)n4)CC3)C2=O)c1` [Example 1.30, 9-(4,6-Dimethyl-pyrimidin-2-yl)-4-((5-(3-(methoxymethyl)phenyl)-2-methyl-oxazol-4-yl)methyl)-1,4,9-triazaspiro[5.5] undecan-5-one], the Kd was 114 nM in experiment [1] and 2140 nM in experiment [2]. The inhibition constant Ki in experiment [3] came to 29 nM. Further, the inhibition at 10 µM in experiment [4] amounted to 51%.

`COc1cccc(-c2cn(C)nc2CN2CCNC3(CCN(c4nc(C)cc(C)n4)CC3)C2=O)c1` [Example 1.33, 9-(4,6-Dimethyl-pyrimidin-2-yl)-4-((4-(3-methoxyphenyl)-1-methyl-1H-pyrazol-3-yl)methyl)-1,4,9-triazaspiro[5.5] undecan-5-one]: the Kd in experiment [1] is 42 nM; in experiment [2], 1620 nM. The Ki was determined as 6 nM in experiment [3] and 1530 nM in experiment [4].

Take `COc1ccc2[nH]cc(CN3CCNC4(CCN(c5nc(C)cc(C)n5)CC4)C3=O)c2c1` [Example 1.34, 9-(4,6-Dimethyl-pyrimidin-2-yl)-4-((5-methoxy-1H-indol-3-yl)methyl)-1,4,9-triazaspiro[5.5] undecan-5-one]: the figures for the Kd in experiment [1] and in experiment [2] were 4 nM and 234 nM, respectively. Further, the Ki in experiment [3] stood at 1 nM; in experiment [4] it was 494 nM.

For `COc1cccc(-c2n[nH]nc2CN2CCNC3(CCN(c4nc(C)cc(C)n4)CC3)C2=O)c1` [Example 1.39, 9-(4,6-Dimethyl-pyrimidin-2-yl)-4-((5-(3-methoxy-phenyl)-2H-1,2,3-triazol-4-yl)methyl)-1,4,9-triazaspiro[5.5] undecan-5-one], the Kd in experiment [1] was 13 nM; in experiment [2], 231 nM. Besides, the Ki in experiment [3] is 2 nM; in experiment [4], 304 nM.

In the case of `Cc1cc(C#N)nc(N2CCC3(CC2)NCCN(Cc2c[nH]c4ccccc24)C3=O)n1` [Example 1.40, 2-(4-((1H-Indol-3-yl)methyl)-5-oxo-1,4,9-triazaspiro[5.5]undecan-9-yl)-6-methylpyrimidine-4-carbonitrile], the results for the Kd in experiment [1] and in experiment [2] were 79 nM and 5300 nM, respectively. In addition, the figures for the Ki in experiment [3] and in experiment [4] were 20 nM and 2810 nM, respectively.
